Earlier results as cited in patent publication US20050180940A1, “Protect against hair loss” (priority 2004, published 2005).

Test system: common male-pattern baldness
Conditions: two daily topical applications, person, after 3-4 weeks

sucralfate
Effect on common male-pattern baldness (hair appearance): appearance of hair in the otherwise bald lateral-frontal areas in the scalp
